Experimental data reported in patent US20240025912A1 (Merck Sharp & Dohme LLC, priority 2022, published 2024).
pEC50: −log10 of the molar value.

target: GST-RIPK1 (recombinant GST-RIPK1 kinase domain (residues 1-327)) (Homo sapiens (Human), UniProt Q13546); test: RIPK1-ADP-Glo Enzymatic Assay; type: biochemical; details: 25 nM GST-RIPK1, 300 μM ATP, 3 μM dephosphorylated-MBP, 30 min pre-incubation, 150 min reaction
Procedure: The enzymatic activity of RIPK1 is measured using an assay derived from ADP-Glo kit (TMPromega), which provides a luminescent-based ADP detection system. Specifically, the ADP generated by RIPK1 kinase is proportionally detected as luminescent signals in a homogenous fashion. In this context, the assessment of the inhibitory effect of small molecules (EC50) is measured by the effectiveness of the compounds to inhibit the ATP to ADP conversion by RIPK1.
In this assay, the potency (EC50) of each compound was determined from a ten-point (1:3 serial dilution; top compound concentration of 100000 nM) titration curve using the following outlined procedure. To each well of a white ProxiPlus 384 well-plate, 30 nL of compound (1% DMSO in final assay volume of 3 μL) was dispensed, followed by the addition of 2 μL of 1× assay buffer (25 mM Hepes 7.3, 20 mM MgCl2, 50 mM NaCl, 1 mM DTT, 0.005% Tween20, and 0.02% BSA) containing 37.5 nM of GST-RIPK1 (recombinant GST-RIPK1 kinase domain (residues 1-327) enzyme produced from baculovirus-transfected Sf21 cells: MW 62 kDa). Plates were placed in an ambient temperature humidified chamber for a 30 min pre-incubation with compound. Subsequently, each reaction was initiated by the addition of 1 μL 1× assay buffer containing 900 μM ATP and 3 μM dephosphorylated-MBP substrate. The final reaction in each well of 3 μL consists of 25 nM of GST-RIPK1, 300 μM ATP, and 3 μM dephosphorylated-MBP. Kinase reactions were allowed to proceed for 150 min prior to adding ADP-Glo reagents per Promega's outlined kit protocol. Dose-response curves were generated by plotting percent effect (% product conversion; Y-axis) vs. Log 10 compound concentrations (X-axis). EC50 values were calculated using a non-linear regression, four-parameters sigmoidal dose-response model.

Chain of GST-RIPK1 (recombinant GST-RIPK1 kinase domain (residues 1-327)) (Q13546 1-327): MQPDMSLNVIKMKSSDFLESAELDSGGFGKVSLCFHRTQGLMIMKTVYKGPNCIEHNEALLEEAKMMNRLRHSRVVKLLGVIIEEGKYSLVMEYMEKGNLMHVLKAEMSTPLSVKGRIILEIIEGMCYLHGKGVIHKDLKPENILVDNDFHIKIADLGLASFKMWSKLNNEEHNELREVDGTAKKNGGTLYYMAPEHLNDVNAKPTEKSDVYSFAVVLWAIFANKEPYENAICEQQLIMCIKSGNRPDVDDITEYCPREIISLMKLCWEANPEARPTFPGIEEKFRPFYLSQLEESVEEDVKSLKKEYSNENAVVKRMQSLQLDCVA

SMILES	pEC50
N#CC12CC(n3nc4n(c3=O)C(C3CCCCC3)CC4)(C1)C2 (single isomer, unassigned) [Compound 1-55, 3-(5-(S or R)-cyclohexyl-3-oxo-6,7-dihydro-3H-pyrrolo[2,1-c][1,2,4]triazol-2(5H)-yl)bicyclo[1.1.1]pentane-1-carbonitrile]	6.99
COC(=O)C12CC(n3nc4n(c3=O)[C@H](c3cc(F)cc(F)c3)CC4)(C1)C2(F)F [Compound 1-36, methyl 3-[(5S)-5-(3,5-difluorophenyl)-3-oxo-6,7-dihydro-3H-pyrrolo[2,1-c][1,2,4]triazol-2(5H)-yl]-2,2-difluorobicyclo[1.1.1]pentane-1-carboxylate]	7.21
O=c1n(C23CC(F)(C2)C3)nc2n1[C@H](c1cncc(F)c1)CC2 [Compound 1-10, (5S)-2-(3-fluorobicyclo[1.1.1]pentan-1-yl)-5-(5-fluoropyridin-3-yl)-2,5,6,7-tetrahydro-3H-pyrrolo[2,1-c][1,2,4]triazol-3-one]	6.57
C[C@H]1C[C@@H](c2cc(F)cc(F)c2)n2c1nn(C13CC(C#N)(C1)C3)c2=O [Compound 1-70, 3-((5S,7S)-5-(3,5-difluorophenyl)-7-methyl-3-oxo-6,7-dihydro-3H-pyrrolo[2,1-c][1,2,4]triazol-2(5H)-yl)bicyclo[1.1.1]pentane-1-carbonitrile]	7.16
O=c1n(C23CC(F)(C2)C3)nc2n1[C@H](c1cc(F)c(Cl)c(F)c1)CC2 [Compound 1-77, (S)-5-(4-chloro-3,5-difluorophenyl)-2-(3-fluorobicyclo[1.1.1]pentan-1-yl)-2,5,6,7-tetrahydro-3H-pyrrolo[2,1-c][1,2,4]triazol-3-one]	7.78
Cc1cncc([C@@H]2CCc3nn(C45CC(Cl)(C4)C5)c(=O)n32)n1 [Compound 1-68]	7.23
O=c1n(C23CCC(CC2)CC3)nc2n1[C@H](c1cc(F)cc(F)c1)CC2 [Compound 1-25, (5S)-2-(bicyclo[2.2.2]octan-1-yl)-5-(3,5-difluorophenyl)-2,5,6,7-tetrahydro-3H-pyrrolo[2,1-c][1,2,4]triazol-3-one]	6.16
O=c1n(C23CC(Cl)(C2)C3)nc2n1[C@H](c1cncc(F)c1)CC2 [Compound 1-15, (5S)-2-(3-chlorobicyclo[1.1.1]pentan-1-yl)-5-(5-fluoropyridin-3-yl)-2,5,6,7-tetrahydro-3H-pyrrolo[2,1-c][1,2,4]triazol-3-one]	6.95
COc1cc(F)cc(C2CCc3nn(C45CC(F)(C4)C5)c(=O)n32)c1 (racemic) [Compound 4-2, (±)-5-(3-fluoro-5-methoxyphenyl)-2-(3-fluorobicyclo[1.1.1]pentan-1-yl)-2,5,6,7-tetrahydro-3H-pyrrolo[2,1-c][1,2,4]triazol-3-one]	6.59
Cc1cc(F)cc(C2CCc3nn(C45CC(F)(C4)C5)c(=O)n32)c1 (racemic) [Compound 4-6, (±)-2-(3-fluorobicyclo[1.1.1]pentan-1-yl)-5-(3-fluoro-5-methylphenyl)-2,5,6,7-tetrahydro-3H-pyrrolo[2,1-c][1,2,4]triazol-3-one]	7.36
Cc1c(F)cc([C@@H]2CCc3nn(C45CC(F)(C4)C5)c(=O)n32)cc1Cl [Compound 1-72, (S)-5-(3-chloro-5-fluoro-4-methylphenyl)-2-(3-fluorobicyclo[1.1.1]pentan-1-yl)-2,5,6,7-tetrahydro-3H-pyrrolo[2,1-c][1,2,4]triazol-3-one]	7.67
O=c1n(C23CC(F)(C2)C3)nc2n1[C@H](c1ccc(Cl)c(F)c1)CC2 [Compound 1-75, (S)-5-(4-chloro-3-fluorophenyl)-2-(3-fluorobicyclo[1.1.1]pentan-1-yl)-2,5,6,7-tetrahydro-3H-pyrrolo[2,1-c][1,2,4]triazol-3-one]	7.77
CC12CC(n3nc4n(c3=O)[C@H](c3cc(F)cc(F)c3)CC4)(CO1)C2 [Compound 1-14, (5S)-5-(3,5-difluorophenyl)-2-(1-methyl-2-oxabicyclo[2.1.1]hexan-4-yl)-2,5,6,7-tetrahydro-3H-pyrrolo[2,1-c][1,2,4]triazol-3-one]	6.82
O=c1n(C23C4C5C2C2C3C4C52F)nc2n1[C@H](c1cc(F)cc(F)c1)CC2 (stereo partly drawn) [Compound 1-20, (5S)-5-(3,5-difluorophenyl)-2-(4-fluoropentacy-clo[4.2.0.0~2,5~.0~3,8~.0~4,7~]octan-1-yl)-2,5,6,7-tetrahydro-3H-pyrrolo[2,1-c][1,2,4]triazol-3-one]	7.41
N#CC12CC(n3nc4n(c3=O)[C@H](c3cc(F)cc(F)c3)CC4)(C1)C2(F)F [Compound 3-1, 3-[(5S)-5-(3,5-difluorophenyl)-3-oxo-6,7-dihydro-3H-pyrrolo[2,1-c][1,2,4]triazol-2(5H)-yl]-2,2-difluorobicyclo[1.1.1]pentane-1-carbonitrile]	7.70

Other lines, results leading:

pEC50	SMILES
6.80	O=c1n(C23CC(F)(C2)C3)nc2n1[C@H](c1ccccc1)CC2F (single isomer, unassigned) [Compound 6-3, (5S)-7-(S or R)-fluoro-2-(3-fluorobicyclo[1.1.1]pentan-1-yl)-5-phenyl-2,5,6,7-tetrahydro-3H-pyrrolo[2,1-c][1,2,4]triazol-3-one]
7.64	O=c1n(C23CC(F)(C2)C3)nc2n1[C@H](c1cccc(F)c1)CC2 [Compound 1-16, (S)-2-(3-fluorobicyclo[1.1.1]pentan-1-yl)-5-(3-fluorophenyl)-2,5,6,7-tetrahydro-3H-pyrrolo[2,1-c][1,2,4]triazol-3-one]
7.06	N#CC12CCC(n3nc4n(c3=O)[C@H](c3ccccc3)CC4)(CC1)C2 [Compound 1-30, 4-[(5S)-3-oxo-5-phenyl-6,7-dihydro-3H-pyrrolo[2,1-c][1,2,4]triazol-2(5H)-yl]bicyclo[2.2.1]heptane-1-carbonitrile]
6.29	O=c1n(C23CC(c4ccccc4)(C2)C3)nc2n1[C@H](c1cncc(F)c1)CC2 [Compound 1-13, (5S)-5-(5-fluoropyridin-3-yl)-2-(3-phenylbicyclo[1.1.1]pentan-1-yl)-2,5,6,7-tetrahydro-3H-pyrrolo[2,1-c][1,2,4]triazol-3-one]
7.43	N#CC12CC(n3nc4n(c3=O)[C@H](c3ccccc3)CC4)(C1)C2 [Compound 1-17, 3-[(5S)-3-oxo-5-phenyl-6,7-dihydro-3H-pyrrolo[2,1-c][1,2,4]triazol-2(5H)-yl]bicyclo[1.1.1]pentane-1-carbonitrile]
7.52	O=c1n(C23CC(C(F)F)(C2)C3)nc2n1[C@H](c1cccc(F)c1)CC2 [Compound 1-33, (5S)-2-[3-(difluoromethyl)bicyclo[1.1.1]pentan-1-yl]-5-(3-fluorophenyl)-2,5,6,7-tetrahydro-3H-pyrrolo[2,1-c][1,2,4]triazol-3-one]
7.46	O=c1n(C23CCC(F)(CC2)C3)nc2n1[C@H](c1cc(F)cc(F)c1)CC2 [Compound 1-3, (5S)-5-(3,5-difluorophenyl)-2-(4-fluorobicyclo[2.2.1]heptan-1-yl)-2,5,6,7-tetrahydro-3H-pyrrolo[2,1-c][1,2,4]triazol-3-one]
7.31	O=c1n(C23CC(c4ccccc4)(C2)C3)nc2n1[C@H](c1cc(F)cc(F)c1)CC2 [Compound 1-12, (5S)-5-(3,5-difluorophenyl)-2-(3-phenylbicyclo[1.1.1]pentan-1-yl)-2,5,6,7-tetrahydro-3H-pyrrolo[2,1-c][1,2,4]triazol-3-one]
6.55	N#Cc1ccc([C@@H]2CCc3nn(C45CC(F)(C4)C5)c(=O)n32)cc1 [Compound 1-67, (S)-4-(2-(3-fluorobicyclo[1.1.1]pentan-1-yl)-3-oxo-2,5,6,7-tetrahydro-3H-pyrrolo[2,1-c][1,2,4]triazol-5-yl)benzonitrile]
7.13	O=c1n(C23CC(F)(C2)C3)nc2n1[C@H](c1ccccc1)CCC2 [Compound 1-80, (S)-2-(3-fluorobicyclo[1.1.1]pentan-1-yl)-5-phenyl-5,6,7,8-tetrahydro-[1,2,4]triazolo[4,3-a]pyridin-3(2H)-one]
6.27	O=c1n(C23CCC(C(F)F)(CC2)C3)nc2n1[C@H](c1cc(F)cc(F)c1)CC2 [Compound 1-27, (5S)-2-[4-(difluoromethyl)bicyclo[2.2.1]heptan-1-yl]-5-(3,5-difluorophenyl)-2,5,6,7-tetrahydro-3H-pyrrolo[2,1-c][1,2,4]triazol-3-one]
7.73	O=c1n(C23CC(Cl)(C2)C3)nc2n1[C@H](c1cccc(F)c1)CC2 [Compound 1-42, (S)-2-(3-chlorobicyclo[1.1.1]pentan-1-yl)-5-(3-fluorophenyl)-2,5,6,7-tetrahydro-3H-pyrrolo[2,1-c][1,2,4]triazol-3-one]
7.29	O=c1n(C23CC(F)(C2)C3)nc2n1[C@H](c1ccccc1)CC2 [Compound 1-6, (5S)-2-(3-fluorobicyclo[1.1.1]pentan-1-yl)-5-phenyl-2,5,6,7-tetrahydro-3H-pyrrolo[2,1-c][1,2,4]triazol-3-one]
